Experimental data as given in patent US11957759B1, “Rapidly accelerated fibrosarcoma (RAF) degrading compounds and associated methods of use” (Arvinas Operations, Inc., priority 2022, dated 2024).

How the values were obtained:
B-RAF V600E = target: T1, B-RAF V600E (Homo sapiens, UniProt P15056, V600E); assay: Target protein degradation, assay C: T-Rex 293 cells, HA-BRAF_V600E, 384 well format; format: cell-based; settings: T-Rex 293 HA-BRAF_V600E cells, 24 hours, Examples 83-269; for DC50: Assay C; for Dmax: T-REx-293, Assay C
T1 construct: expressed in transfected cells; host or cells: T-Rex 293 cells (Invitrogen #R71007)
T1 sequence (P15056 whole entry V600E): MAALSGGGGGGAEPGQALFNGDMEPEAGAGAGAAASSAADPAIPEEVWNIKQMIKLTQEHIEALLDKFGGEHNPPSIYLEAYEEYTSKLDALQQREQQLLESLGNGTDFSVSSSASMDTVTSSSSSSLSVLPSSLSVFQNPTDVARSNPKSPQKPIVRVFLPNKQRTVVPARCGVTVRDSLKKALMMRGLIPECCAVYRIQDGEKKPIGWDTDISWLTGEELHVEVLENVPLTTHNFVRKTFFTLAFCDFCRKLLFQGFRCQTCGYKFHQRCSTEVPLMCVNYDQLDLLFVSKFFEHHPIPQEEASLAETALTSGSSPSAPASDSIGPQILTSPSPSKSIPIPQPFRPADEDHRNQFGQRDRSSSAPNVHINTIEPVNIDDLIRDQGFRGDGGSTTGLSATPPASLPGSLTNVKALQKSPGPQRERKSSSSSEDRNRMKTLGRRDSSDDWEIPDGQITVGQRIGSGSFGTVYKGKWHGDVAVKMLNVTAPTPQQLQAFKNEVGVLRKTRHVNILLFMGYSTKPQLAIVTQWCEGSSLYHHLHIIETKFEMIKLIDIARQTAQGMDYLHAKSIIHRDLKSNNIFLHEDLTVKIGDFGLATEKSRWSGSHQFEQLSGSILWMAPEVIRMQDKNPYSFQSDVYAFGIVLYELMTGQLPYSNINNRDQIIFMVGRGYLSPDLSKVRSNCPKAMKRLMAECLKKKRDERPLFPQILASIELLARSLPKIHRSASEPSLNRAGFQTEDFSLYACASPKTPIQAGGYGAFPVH
Outline: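 T-Rex 293 cells stably expressing doxycycline-induced (1 ng/mL) HA-BRAF V600E were treated 24 h at 37 °C with compound (300 nM–5 pM, 11 points, 0.5% DMSO). HA immunofluorescence was quantified by high-content imaging to give DC50 and Dmax (% of control); nuclei counts versus DMSO gauged toxicity.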

B-RAF G466V = target: T2, B-RAF G466V (Homo sapiens, UniProt P15056, G466V); assay: Target protein degradation, assay D: T-Rex 293 cells, HA-BRAF_G466V, 384 well format; format: cell-based; settings: T-Rex 293 HA-BRAF_G466V cells, 24 hours, Examples 83-269; for DC50: Assay D; for Dmax: T-REx-293, Assay D
T2 construct: expressed in transfected cells; host or cells: T-Rex 293 cells (Invitrogen #R71007)
T2 sequence (P15056 whole entry G466V): as the sequence (P15056 whole entry V600E) above, with G466V, E600V counted along it
Outline: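 T-Rex 293 cells stably expressing doxycycline-induced (1 ng/mL) HA-BRAF G466V treated 24 h at 37 °C with PROTACs, 11-point 1:3 dilution, 300 nM to 5 pM final, 0.5% DMSO. Fixed cells immunostained for HA and imaged by high-content microscopy; DC50 and Dmax (% of control) derived, toxicity from nuclei counts versus DMSO.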

DC50 (B-RAF V600E) [nM] | Dmax (B-RAF V600E) [%] | DC50 (B-RAF G466V) [nM] | Dmax (B-RAF G466V) [%] | SMILES
50 to 500 | 35 to 70 | 10 to 30 | ≤ 35 | N#Cc1c(NS(=O)(=O)N2CC[C@@H](F)C2)ccc(F)c1Oc1ccc2ncn(-c3ccc(N4CCC(CN5CCN(CC6CCN(c7ccc8c(c7)CN([C@@H]7CCC(=O)NC7=O)C8=O)CC6)CC5)CC4)cc3)c(=O)c2c1 [Example 186, (3R)-N-{2-cyano-3-[(3-{4-[4-({4-[(1-{2-[(3R)-2,6-dioxopiperidin-3-yl]-1-oxo-2,3-dihydro-1H-isoindol-5-yl}piperidin-4-yl)methyl]piperazin-1-yl}methyl)piperidin-1-yl]phenyl}-4-oxo-3,4-dihydroquinazolin-6-yl)oxy]-4-fluorophenyl}-3-fluoropyrrolidine-1-sulfonamide]
50 to 500 | ≥ 70 | 1 to 10 | ≤ 35 | N#Cc1c(NS(=O)(=O)N2CC[C@@H](F)C2)ccc(F)c1Oc1ccc2ncn(-c3ccc(N4CCC(CN5CCC(c6ccc([C@H]7CCC(=O)NC7=O)cc6F)CC5)CC4)cc3)c(=O)c2c1 [Example 187, (3R)-N-(2-cyano-3-{[3-(4-{4-[(4-{4-[(3R)-2,6-dioxopiperidin-3-yl]-2-fluorophenyl}piperidin-1-yl)methyl]piperidin-1-yl}phenyl)-4-oxo-3,4-dihydroquinazolin-6-yl]oxy}-4-fluorophenyl)-3-fluoropyrrolidine-1-sulfonamide]
50 to 500 | 35 to 70 | 1 to 10 | 35 to 70 | N#Cc1c(NS(=O)(=O)N2CC[C@@H](F)C2)ccc(F)c1Oc1ccc2ncn(-c3ccc(N4CCC(CN5CCC(c6ccc([C@@H]7CCC(=O)NC7=O)cc6F)CC5)CC4)cc3)c(=O)c2c1 [Example 188, (3R)-N-(2-cyano-3-{[3-(4-{4-[(4-{4-[(3S)-2,6-dioxopiperidin-3-yl]-2-fluorophenyl}piperidin-1-yl)methyl]piperidin-1-yl}phenyl)-4-oxo-3,4-dihydroquinazolin-6-yl]oxy}-4-fluorophenyl)-3-fluoropyrrolidine-1-sulfonamide]
50 to 500 | 35 to 70 | 1 to 10 | 35 to 70 | N#Cc1c(NS(=O)(=O)N2CC[C@@H](F)C2)ccc(F)c1Oc1ccc2ncn(-c3ccc(N4CC(CN5CCC(c6ccc7c(c6)CN([C@H]6CCC(=O)NC6=O)C7=O)CC5)C4)cc3)c(=O)c2c1 [Example 189, (3R)-N-(2-cyano-3-{[3-(4-{3-[(4-{2-[(3S)-2,6-dioxopiperidin-3-yl]-1-oxo-2,3-dihydro-1H-isoindol-5-yl}piperidin-1-yl)methyl]azetidin-1-yl}phenyl)-4-oxo-3,4-dihydroquinazolin-6-yl]oxy}-4-fluorophenyl)-3-fluoropyrrolidine-1-sulfonamide]
50 to 500 | 35 to 70 | 1 to 10 | 35 to 70 | N#Cc1c(NS(=O)(=O)N2CC[C@@H](F)C2)ccc(F)c1Oc1ccc2ncn(-c3ccc(N4CC5(CC(CN6CCC(c7ccc8c(c7)CN(C7CCC(=O)NC7=O)C8=O)CC6)C5)C4)cc3)c(=O)c2c1 (stereo partly drawn) [Example 190, (3R)-N-{2-cyano-3-[(3-(4-[6-({4-[2-(2,6-dioxopiperidin-3-yl)-1-oxo-2,3-dihydro-1H-isoindol-5-yl]piperidin-1-yl}methyl)-2-azaspiro[3.3]heptan-2-yl]phenyl}-4-oxo-3,4-dihydroquinazolin-6-yl)oxy]-4-fluorophenyl}-3-fluoropyrrolidine-1-sulfonamide]
50 to 500 | 35 to 70 | 1 to 10 | 35 to 70 | N#Cc1c(NS(=O)(=O)N2CC[C@@H](F)C2)ccc(F)c1Oc1ccc2ncn(-c3ccc(N4CC5(CC(CN6CCN(c7ccc8c(c7)CN([C@H]7CCC(=O)NC7=O)C8=O)CC6)C5)C4)cc3)c(=O)c2c1 [Example 191, (3R)-N-(2-cyano-3-{[3-(4-{6-[(4-{2-[(3S)-2,6-dioxopiperidin-3-yl]-1-oxo-2,3-dihydro-1H-isoindol-5-yl}piperazin-1-yl)methyl]-2-azaspiro[3.3]heptan-2-yl}phenyl)-4-oxo-3,4-dihydroquinazolin-6-yl]oxy}-4-fluorophenyl)-3-fluoropyrrolidine-1-sulfonamide]
50 to 500 | 35 to 70 | 1 to 10 | 35 to 70 | N#Cc1c(NS(=O)(=O)N2CC[C@@H](F)C2)ccc(F)c1Oc1ccc2ncn(-c3ccc(N4CC5(CCN(CC6CCN(c7ccc8c(c7)CN([C@H]7CCC(=O)NC7=O)C8=O)CC6)CC5)C4)cc3)c(=O)c2c1 [Example 192, (3R)-N-(2-cyano-3-{[3-(4-{7-[(1-{2-[(3S)-2,6-dioxopiperidin-3-yl]-1-oxo-2,3-dihydro-1H-isoindol-5-yl}piperidin-4-yl)methyl]-2,7-diazaspiro[3.5]nonan-2-yl}phenyl)-4-oxo-3,4-dihydroquinazolin-6-yl]oxy}-4-fluorophenyl)-3-fluoropyrrolidine-1-sulfonamide]
50 to 500 | 35 to 70 | 1 to 10 | 35 to 70 | N#Cc1c(NS(=O)(=O)N2CC[C@@H](F)C2)ccc(F)c1Oc1ccc2ncn(-c3ccc(N4CC5(CCN(CC6CCN(c7ccc8c(c7)CN([C@@H]7CCC(=O)NC7=O)C8=O)CC6)CC5)C4)cc3)c(=O)c2c1 [Example 193, (3R)-N-(2-cyano-3-{[3-(4-{7-[(1-{2-[(3R)-2,6-dioxopiperidin-3-yl]-1-oxo-2,3-dihydro-1H-isoindol-5-yl}piperidin-4-yl)methyl]-2,7-diazaspiro[3.5]nonan-2-yl}phenyl)-4-oxo-3,4-dihydroquinazolin-6-yl]oxy}-4-fluorophenyl)-3-fluoropyrrolidine-1-sulfonamide]
50 to 500 | ≤ 35 | 1 to 10 | 35 to 70 | N#Cc1c(NS(=O)(=O)N2CCC(F)C2)ccc(F)c1Oc1ccc2ncn(-c3ccc(N4CCN(CC5CN(c6ccc7c(c6)CN(C6CCC(=O)NC6=O)C7=O)C5)CC4)cc3)c(=O)c2c1 (stereo not shown) [Example 194, N-{2-cyano-3-[(3-{4-[4-({1-[2-(2,6-dioxopiperidin-3-yl)-1-oxo-2,3-dihydro-1H-isoindol-5-yl]azetidin-3-yl}methyl)piperazin-1-yl]phenyl}-4-oxo-3,4-dihydroquinazolin-6-yl)oxy]-4-fluorophenyl}-3-fluoropyrrolidine-1-sulfonamide]
50 to 500 | ≤ 35 | 1 to 10 | ≤ 35 | N#Cc1c(NS(=O)(=O)N2CC[C@H](F)C2)ccc(F)c1Oc1ccc2ncn(-c3ccc(N4CCN(CC5CN(c6ccc7c(c6)CN([C@H]6CCC(=O)NC6=O)C7=O)C5)CC4)cc3)c(=O)c2c1 [Example 195, (3S)-N-(2-cyano-3-{[3-(4-{4-[(1-{2-[(3S)-2,6-dioxopiperidin-3-yl]-1-oxo-2,3-dihydro-1H-isoindol-5-yl}azetidin-3-yl)methyl]piperazin-1-yl}phenyl)-4-oxo-3,4-dihydroquinazolin-6-yl]oxy}-4-fluorophenyl)-3-fluoropyrrolidine-1-sulfonamide]
50 to 500 | 35 to 70 | 1 to 10 | 35 to 70 | N#Cc1c(NS(=O)(=O)N2CC[C@H](F)C2)ccc(F)c1Oc1ccc2ncn(-c3ccc(N4CCN(CC5CN(c6ccc7c(c6)CN([C@@H]6CCC(=O)NC6=O)C7=O)C5)CC4)cc3)c(=O)c2c1 [Example 196, (3S)-N-(2-cyano-3-{[3-(4-{4-[(1-{2-[(3R)-2,6-dioxopiperidin-3-yl]-1-oxo-2,3-dihydro-1H-isoindol-5-yl}azetidin-3-yl)methyl]piperazin-1-yl}phenyl)-4-oxo-3,4-dihydroquinazolin-6-yl]oxy}-4-fluorophenyl)-3-fluoropyrrolidine-1-sulfonamide]
50 to 500 | 35 to 70 | 1 to 10 | 35 to 70 | O=C1CCC(N2Cc3cc(N4CCC(CN5CCN(c6ccc(-n7cnc8ccc(Oc9c(F)ccc(NS(=O)(=O)N%10CC[C@@H](F)C%10)c9Cl)cc8c7=O)cc6)CC5)CC4)ccc3C2=O)C(=O)N1 (stereo partly drawn) [Example 199, (3R)-N-{2-chloro-3-[(3-{4-[4-({1-[2-(2,6-dioxopiperidin-3-yl)-1-oxo-2,3-dihydro-1H-isoindol-5-yl]piperidin-4-yl}methyl)piperazin-1-yl]phenyl}-4-oxo-3,4-dihydroquinazolin-6-yl)oxy]-4-fluorophenyl}-3-fluoropyrrolidine-1-sulfonamide]
50 to 500 | 35 to 70 | 1 to 10 | 35 to 70 | N#Cc1c(NS(=O)(=O)N2CC[C@@H](F)C2)ccc(F)c1Oc1ccc2ncn(-c3ccc(N4CCC5(CCN(CC6CCN(c7ccc8c(c7)CN([C@H]7CCC(=O)NC7=O)C8=O)CC6)CC5)CC4)cc3)c(=O)c2c1 [Example 200, (3R)-N-(2-cyano-3-{[3-(4-{9-[(1-{2-[(3S)-2,6-dioxopiperidin-3-yl]-1-oxo-2,3-dihydro-1H-isoindol-5-yl}piperidin-4-yl)methyl]-3,9-diazaspiro[5.5]undecan-3-yl}phenyl)-4-oxo-3,4-dihydroquinazolin-6-yl]oxy}-4-fluorophenyl)-3-fluoropyrrolidine-1-sulfonamide]
